Results reported in the NIST ThermoML archive (doi:10.1021/acs.jced.6b00819).
Numbers after ± are expanded uncertainties.

Experiment: wn = mass fraction of the nth substance listed
Settings: 100 kPa, Liquid, Pycnometric method

Work on `N.N.O=S(=O)(O)O` [ammonium sulfate] + O yielded a mass density (313.15 K, w1 = 0.446) of 1238 ± 2 kg/m3 and a mass density (353.15 K, w1 = 0.481) of 1242 ± 2 kg/m3.
